From patent US5332759A, “Naphthalene amides and sulphonamides, processes for their preparation and pharmaceutical compositions containing them” (Adir et Compagnie, priority 1992, dated 1994)

Legend:
[1] = system: annular sections of the basilar artery of dogs; assay: In vitro vasoconstrictive activity in the basilar artery of dogs; details: dog basilar artery, endothelium removed
Procedure: Experiments are carried out on annular sections of the basilar artery of dogs from which the endothelium has been removed and which are placed in an organ chamber enabling the measurement of isometric contractions in the presence or absence of ketanserin.

[2] = system: annular sections of the coronary artery; assay: Effect on annular sections of the coronary artery; design: species or system dogs; details: same doses as in the basilar artery test
[3] = system: sections of the saphenous vein; assay: Effect on sections of the saphenous vein; design: species or system dogs; details: same doses as in the basilar artery test

SMILES	induction of contractions in arterial sections [1]	EC50 ([1]; isometric contractions, read-out: EC50, contraction of basilar artery sections) [nM]	effect on annular sections of the coronary artery [2]	effect on sections of the saphenous vein [3]
NCCc1c[nH]c2ccc(O)cc12 [serotonin, reference compound]	capable of inducing contractions			
CNS(=O)(=O)Cc1ccc2cccc(CCN(C)C)c2c1 [Example 1, 2-{1-[2-(Dimethylamino)ethyl]naphth-7-yl}-N-methyl-methanesulphonamide]		~1000	does not show any significant effect	does not show any significant effect
